Laboratory results: US10420831B2, “Inactivation of viruses by delipidation” (priority 2016, dated 2019)
Read-outs that look alike come from different tables or passages of the source.

Legend:
[1] = tested on: human influenza virus H1N1 A/WSN/33 strain; assay type: cell-based
[2] = tested on: human influenza virus H1N1 A/WSN/33 strain; experiment: Hemagglutination (HA) activity of treated IFV with chicken red blood cells
Method: Hemagglutination (HA) activity is determined as follows. Freshly isolated chicken blood is washed three times with PBS, and the red blood cells (RBC) are resuspended in PBS at a concentration of 1%. Virus dilutions (50 μL) are made in PBS and mixed with 50 μL of the RBC suspension. The mixture is added to individual wells in a 96-well plate and the RBC are allowed to settle for 45 minutes. The wells are judged to be HA negative (i.e. no agglutination of RBC) if a dot or pellet of RBC is present, and a well is judged to be positive if a smooth suspension of RBC is present.
In addition to MBCD, another lipid solvent, diisopropyl ether (DIPE) is used to delipidate IFV. […] After a brief centrifugation at 2,000×g for 3 minutes, visible solvent is removed, and the aqueous materials are left to dry in a fume hood for 20 minutes. The samples are then centrifuged at 200,000×g for 30 minutes to recover virus particles.

Compound: CC(C)OC(C)C [DIPE, diisopropyl ether]
- IFV infectivity reduced, compared to the mock-treatment ([1]; 12% DIPE, 37° C., 30 minutes, […]): 32 fold
- PFU/mL ([1]; IFV, 2% DIPE, 37° C., 30 minutes): 1.2 × 10^8 PFU/mL
- PFU/mL ([1]; IFV, 4% DIPE, 37° C., 30 minutes): 1.4 × 10^8 PFU/mL
- PFU/mL ([1]; IFV, 8% DIPE, 37° C., 30 minutes): 9.0 × 10^7 PFU/mL
- decrease in infectivity in vitro ([1]; IFV, 10% DIPE, 30 minute treatment): ~120 fold
- PFU/mL ([1]; IFV, 10% DIPE, end-over-end rotation at 37° C. for 30 minutes): 1.0 × 10^5 PFU/mL
- PFU/mL ([1]; IFV, 12% DIPE, 37° C., 30 minutes): 2.8 × 10^7 PFU/mL
- HA units ([2]; 2% DIPE, 37° C., 30 minutes): 32 HA units
- HA units ([2]; 4% DIPE, 37° C., 30 minutes): 32 HA units
- HA units ([2]; 8% DIPE, 37° C., 30 minutes): 32 HA units
- effect on HA activity (in words) ([2]; 10% DIPE, 30 minutes): measurably reduced
- HA units ([2]; 10% DIPE, end-over-end rotation at 37° C. for 30 minutes): 16 HA units
- HA units ([2]; 12% DIPE, 37° C., 30 minutes): 16 HA units
